From article PMC9012943, “Oral remdesivir derivative VV116 is a potent inhibitor of respiratory syncytial virus with efficacy in mouse model” (Signal Transduction and Targeted Therapy, 2022)
Read-outs that look alike come from different tables or passages of the source.

What was measured:
[1] = Cellular toxicity in A549 cells (WST-8 cell viability); assay type: cell-based; conditions: human; A549 cells, 48 h; read-out: CC50
Description: Cell viability was performed in 96-well plate with triplicate for each concentration. All drugs were diluted 2 times with 9 gradients starting at 500 micromores in maintenance medium (DMEM containing 2% FBS). After 48 h incubation, the supernatant was removed, and 10 μL WST-8 (2-(2-methoxy-4-(phenyl)-3-(4-(phenyl) to 5 (2, 4-sulpho benzene) -2 h-tetrazolium monosodium salt) in maintenance medium was added in medium. Plates were measured at 450 nm wavelength using spectrophotometer (BioTek) after 2 h incubation, and cell viability was calculated.

[2] = Pharmacokinetic study in Balb/c mice; assay type: in vivo; conditions: for Cmax: X1 in blood
Description: A total of nine Balb/c mice (N = 3 for each group, male) were divided into three groups, and fasted for 12 h before dosing. The three groups received oral dose of VV116 dissolved in 40%PEG400+10% Kolliphor® HS15+50% ultrapure water at 25 mg/kg, 50 mg/kg and 100 mg/kg, respectively. At 5 min, 0.25, 0.5, 1.0, 2.0, 4.0, 6.0, 8.0, and 24 h post-dosing, blood samples were collected from the jugular vein or the submandibular vein into EDTA-K2 tubes, and immediately mixed with acetonitrile (20 µL blood + 80 μL acetonitrile). The concentrations of analytes in the blood were analyzed by LC-MS/MS.

[3] = Tissue distribution study in Balb/c mice; assay type: in vivo; conditions: VV116 oral 100 mg/kg
Description: A total of thirty Balb/c mice were divided into five groups (3 animals/sex/group). VV116 was intragastrically administered at 100 mg/kg dissolved in 40%PEG400+10% Kolliphor® HS15+50%. At 0 (not administered), 0.25, 2, 6, and 24 h post-dosing, the five groups of mice were anesthetized, respectively. Blood samples were collected, and tissues including liver and lung were harvested. Tissue samples were individually homogenized, and blood samples were processed as above. The concentrations of X1 in liver, lung and blood were analyzed by LC-MS/MS.

RSV A2 = assay: Inhibition of RSV A2 replication in A549 cells (qRT-PCR); assay type: cell-based, respiratory syncytial virus
Description: A549, HEp-2 or NHBE cells were plated into 48 well-plate and incubated overnight. Upon reaching 80% cell confluence, cells were infected RSV A2 (at an MOI of 2 in A549, MOI of 0.5 in HEp-2, and MOI of 1 in NHBE cells) for 2 h after cells were incubated for 1 h with varying concentrations of drugs. Then, the virus-drug mixture was removed, and cells were cultured with drug-containing medium. At 48 h post inoculation, total RNAs were extracted from cells and then in reverse transcription using PrimeScript RT reagent Kit with gDNA Eraser (TaKaRa). For determining the viral copies, absolute quantitative RT-PCR was performed with TB Green® Premix Ex Taq^TM II (TaKaRa). RSV A2 F fragment was quantified with primers 5’-[…]-3’; and 5’-[…]-3’

[4] = Toxicokinetics in SD rats; assay type: in vivo
Description: Groups of male and female SD rats (4 animals/sex/group) received repeated oral doses of VV116 (dissolved in 40%PEG400+10% Kolliphor® HS15+50% ultrapure water) at 100 (low), 200 (mild) and 500 mg/kg/d (high) for 14 days. At day 1 and day 14, blood samples were collected from the jugular vein into EDTA-K2 tubes at various time points post-dose. Plasma samples were obtained following general procedures and the concentrations of analytes in the samples were analyzed by LC-MS/MS.

## [2H]c1cc([C@]2(C#N)O[C@H](CO)[C@@H](O)[C@H]2O)n2ncnc(N)c12 [X1]
[1]
  CC50 at 48 h: > 500 µM
[2]; Balb/c mice, following oral administration of VV116
  Time for blood concentration of X1 to reach Cmax: ≤ 0.5 h
[2]; male, mouse, whole blood, po, Balb/c mice, VV116 p.o. 25 mg/kg, read-out: Cmax
  Cmax: 5360 ng/mL
[2]; male, mouse, whole blood, X1, Balb/c mice, VV116 oral 25 to 100 mg/kg, read-out: elimination half-life
  half-life: 2.3 to 4.25 h
[2]; male, mouse, whole blood, Balb/c mice, VV116 oral 25 mg/kg, read-out: mean Cmax
  Cmax: 18.4 µM
[3]
  concentration of X1 in the lung relative to that in the liver: about half
RSV A2
  SI: > 314
RSV A2; human respiratory syncytial virus, RSV A2
  EC90: 3.56 ± 0.63 µM
RSV A2; human respiratory syncytial virus, RSV A2 MOI 2, 48 h
  EC50: 1.59 ± 0.49 µM
[4]; both sexes, rat, plasma, po, X1, SD rats, VV116 p.o. 200 mg/kg, Total, Day 1
  AUC0-t: 85200 ng·h/mL
[4]; in vivo
  AUC0–t of X1 at rat NOAEL (200 mg/kg) relative to that at 50 mg/kg in mice: ~ 3.5 folds
